In patent publication US9320723B2, “Methods of treating thyroid eye disease” (University of Rochester, priority 2010, dated 2016):
Like-named read-outs stand apart in the source and are kept apart here.

How the values were obtained:
[1] = test system: human orbital fibroblasts; conditions: previously reported (Feldon et al. 2006); cited from earlier work
[2] = test system: human orbital fibroblasts; test: HA ELISA of culture medium of orbital fibroblasts treated with prostaglandins or drugs; assay type: cell-based; conditions: for HA levels after selective DP agonist: compared to untreated fibroblasts; for basal HA levels: 100 nM antagonist alone, compared with untreated; for PGD2- and PGJ2-induced HA production: 100 nM antagonist pretreatment 1 hour, PGD2 5 μM or PGJ2 2 μM
Source text: Orbital fibroblasts: Primary orbital fibroblasts were isolated from TED patients undergoing orbital decompression surgery. The protocols for orbital biopsy and blood sample, described below, were approved by the Internal Review Board and informed, written consent was obtained from all patients. […] Fibroblasts were characterized by their adherent morphology, expression of vimentin and types I and III collagen and absence of CD45, factor VIII or cytokeratin. Fibroblasts were used at the earliest passage possible (between passages 4 to 10). Human T cells: Lymphocytes were isolated from 60 ml of peripheral blood obtained during orbital decompression surgery. Whole blood was separated over a Ficoll-Paque Plus Gradient (Amersham Biosciences, Piscataway, N.J.) to obtain peripheral blood mononuclear cells. T cells were enriched using CD3/CD28 T cell Expander beads (Invitogen). […] After that, 50 U/ml of recombinant interleukin-2 (rIL-2) was added to the culture and incubated for another 2-3 days. On day 5, cells were diluted to a concentration of 0.5×10^6 cells/ml in medium containing 50 U/ml rIL-2 and incubated for an additional 3-7 days. Cellular purity was assessed using an anti-CD3-PE antibody (BD Biosciences, San Jose, Calif.) and analyzed on a FACSCalibur flow cytometer (BD Biosciences).
Aliquots of culture medium were removed at indicated time points, centrifuged (5 min, 8,000×g at 4° C.) and HA levels quantified by enzyme-linked immunosorbent assay (ELISA) according to the manufacturer's protocol (R&D Systems). Briefly, samples were incubated in HA-binding protein (HABP)-coated microwells, allowing HA in samples to react with the immobilized HABP. After the removal of unbound molecules by washing, biotinylated-HABP was added to the microwells. Following a second wash, streptavidin-conjugated to horseradish peroxidase was added. After the last wash, the chromogenic substrate was added and HA levels were determined using a Varioskan Flash plate reader (Thermo Fisher Scientific, Milford, Mass.).

HMC-1 cells = test: Measurement of PGD2 produced by mast cells (PGD2-MOX EIA); assay type: cell-based, human; conditions: 10 μM A23187, 30 minutes, compared to untreated
Description: HMC-1 cells (1×10^6/well) were seeded into 6-well plates and cultured in IMDM medium with 5% FBS in the absence or presence of HQL-79 (H-PGDS inhibitor, 100 μM) at 37° C. for 60 minutes. The cells were then washed and resuspended in RPMI 1640 medium with 0.5% FBS. After 2 hours incubation, the cells were stimulated with 10 μM calcium ionophore A23187 for 30 minutes. The culture media were collected and PGD2 in the supernatants was quantified by PGD2-MOX EIA kits (Cayman Chemical).

[3] = test system: human orbital fibroblasts; test: Quantitation of secreted, pericellular and intracellular HA by ELISA, TGF-β1 treatment; assay type: cell-based; conditions: for cell number after treatment: cells counted in the FIG. 10 experiment; for inhibition at 10 µM: Homo sapiens, Fibroblast, 2 ng/ml TGF-β1, 24 hours
Description: Confluent monolayers of orbital fibroblasts were serum starved in 0.5% FBS RPMI-1640 medium for three days and pretreated with different concentrations of Pio or Rosi for 1 hour and then treated with or without 2 ng/ml TGF-β1 for 24 hours. After treatments, an aliquot of culture medium (secreted HA) was removed and centrifuged at 8,000×g at 4° C. for 5 minutes and the supernatant was saved for later analysis. The cells were washed twice with PBS and treated with 0.25% trypsin-EDTA solution (GIBCO, Invitrogen) at 37° C. for 5 minutes, the reaction was stopped by addition of culture medium and cell number was determined using a hemocytometer. The cells were then centrifuged and the supernatant was collected and incubated at 100° C. for 10 minutes to inactivate trypsin activity. This supernatant was saved for pericellular HA detection. The cell pellet was washed with PBS once and digested with 120 μg/ml proteinase K in 0.1% SDS/0.1 M Tris-HCl (pH 7.6) at 37° C. for 1 hour, and proteinase K was inactivated by incubation at 100° C. for 10 min. The cell lysate was centrifuged and supernatant analyzed for intracellular HA.
The amount of HA in each extract (secreted HA, pericellular HA and intracellular HA) was measured by ELISA based on the specific interaction of HA with HA binding protein (HABP). The HA detection kit was purchased from R&D system (Minneapolis, Minn.). Briefly, diluted samples were incubated in HABP-coated microwells, allowing HA present in samples to react with the immobilized HABP. After extensive washing, biotinylated HABP was added to the microwells to form complexes with bound HA. Following another round of washing, streptavidin conjugated horseradish peroxidase was added. After a brief incubation period and washing, chromogenic substrate was added and HA levels were determined using a Varioskan Flash plate reader (Thermo Fisher Scientific, Milford, Mass.). A fraction of the samples were pretreated with Streptomyces hyaluronidase (2 U/ml at 37° C. for 2 hour) before subjected to the ELISA assay as a negative control. Furthermore, an additional 50 ng/ml (final concentration) of free soluble HA was added to a fraction of the cell lysate samples to confirm that there are no inhibitory factors present and that the assays show the expected additivity when a known amount of exogenous HA is included.

orbital fibroblasts = test: Measurement of intracellular cAMP (TR-FRET immunoassay); assay type: cell-based, human; conditions: PGD2 5 μM, BW245C 10 μM, up to 60 minutes
Description: cAMP levels were quantified using a time-resolved fluorescence resonance energy transfer (TR-FRET) immunoassay from Perkin Elmer (Waltham, Mass.) according to the manufacturer's protocol. Briefly, orbital fibroblasts were detached with a non-enzymatic cell dissociation solution (Versene, Invitrogen) and re-suspended in Stimulation Buffer (pH 7.4; 1×HBSS buffer containing 5 mmol/L HEPES buffer and 0.01%-0.1% BSA) containing 0.5 mM IBMX and labeled with the Alexa Fluor® 647-labeled anti-cAMP antibody. Finally, the cells were incubated with drugs at the indicated times. Following addition of the detection buffer, the amount of cAMP signal was measured.

[4] = test system: human orbital fibroblasts; test: qRT-PCR of HAS mRNA after PGD2 or BW245C; assay type: cell-based; conditions: BW245C 10 μM
Description: RNA was isolated from orbital fibroblasts or T cells using an RNeasy Mini kit (Qiagen). RNA was reverse transcribed to cDNA using iScript cDNA synthesis kit (Bio-Rad) and diluted 5-fold in RNase-free H2O. Forward and reverse primers for each gene are shown in Table I. RT-PCR: The PCR reaction was performed using Qiagen Fast Cycling PCR kit for 30 cycles in a Bio-Rad thermal cycler. The PCR product was visualized on a 5% acrylamide gel stained with ethidium bromide. Amplifications without reverse transcriptase were carried out as negative controls. qRT-PCR: qRT-PCR was performed in a Bio-Rad iCycler containing B-R SYBR Green SuperMix for IQ (Quanta Biosciences, Gaithersburg, Md.). Efficiency of the amplification was determined to be >90%.
Amplification of 7S ribosomal RNA was carried out for each cDNA (in triplicate) for normalization. Threshold cycle number (Ct) of amplification in each sample was determined by Bio-Rad software and the relative mRNA abundance was calculated as the Ct for amplification of a gene-specific cDNA minus average Ct for 7S, expressed as a power of 2; i.e., 2^ΔCt.

[5] = test system: human orbital fibroblasts; test: Cell viability assay (XTT); assay type: cell-based; conditions: 24 hours, with or without TGF-β1
Description: Cell viability was assayed using the colorimetric XTT (2,3-bis-(2-methoxy-4-nitro-5-sulfophenyl)-2H-tetrazolium-5-carboxanilide) assay kit (Roche, Germany). Briefly, orbital fibroblasts were seeded in a 96-well plate and cultured with various treatments. Twenty hours after treatment, 50 μl of XTT labeling mixture was added and cells were incubated at 37° C. for 4 hours. The amount of cleaved XTT product generated by metabolically active cells was assayed by measuring absorbance using an ELISA plate reader at 480 nm with a reference wavelength at 650 nm. Cell viability results were also confirmed by Trypan blue staining.

[6] = test system: human orbital fibroblasts; test: qRT-PCR of HAS mRNA after TGF-β1 with or without Pio or Rosi; assay type: cell-based; conditions: 10 μM, 6 hours
Source text: RNA was isolated from orbital fibroblast strains using the RNeasy Mini kit according to the manufacturer's protocol (Qiagen, Valencia, Calif.) and reverse transcripted to cDNA using iScript cDNA synthesis kit (Bio-Rad, Hercules, Calif.). Primers for human HAS1, 2, 3 and 7S as well as qRT-PCR method to detect relative abundance of mRNA are identified supra. Primers for human PPARγ1 (NM138711) and PPARγ 2 (NM015869) mRNA were 5′-AAAGAAGCCGA-CACTAAACC-3′ (SEQ ID NO:3) (sense), 5′-CTTCCATTACGG-AGAGATCC-3′ (SEQ ID NO:4) (antisense) and, 5′-GCGATTC-CTTCACTGATAC-3′ (SEQ ID NO:5) (sense), 5′-CTTCCATT-ACGGAGAGATCC-3′ (SEQ ID NO:6) (antisense), respectively.

[7] = test system: primary orbital fibroblasts; test: 15d-PGJ2 on TGF-β1 induced HA and HAS mRNA; assay type: cell-based, human; conditions: 15d-PGJ2 0.5, 1.0 or 2.0 μM
Description: Primary orbital fibroblasts were isolated from Graves' disease patients undergoing orbital decompression surgery. The cells were grown in RPMI 1640 media containing 10% FBS, and incubated for 24 hours either with or without 2 ng/ml TGF-β1, and 0.5 μM, 1.0 μM, or 2.0 μM 15d-PGJ2. The amount of HA in the cell culture supernatant and pericellular extraction was measured by ELISA as in the preceding Examples. […] While TGF-β normally induces both HAST and HAS2 mRNA expression, TGF-β induced HA secretion was inhibited by 15d-PGJ2 (FIG. 18).

CCCCC[C@H](O)/C=C/[C@H]1C(=O)C=C[C@@H]1C/C=C\CCCC(=O)O [PGJ2]
adipogenesis in human orbital fibroblasts [1]: induce adipogenesis | concentration yielding the largest induction of HA ([2]; 18 hours, strains OF1 and OF2): 2 µM | HA synthesis (HA ELISA) ([2]; increasing concentrations, 18 hours, strains OF1 and OF2): significantly increased HA synthesis by both fibroblast strains in a dose-dependant manner

CNc1ccc2oc(C[C@H]3O[C@@]4(CC[C@H]3C)O[C@H]([C@H](C)C(=O)c3ccc[nH]3)[C@H](C)C[C@H]4C)nc2c1C(=O)O [A23187]
PGD2 production on activation (HMC-1 cells): significantly increased PGD2 production

O=C(Nc1ccccc1)c1cc([N+](=O)[O-])ccc1Cl [GW9662]
PPARγ ligand-driven adipogenesis [1]: completely inhibited | effect of GW9662 on inhibition of TGF-β1 induced HA synthesis by Pio or Rosi ([3]; 1 μM GW9662 pretreatment 1 hour, 10 μM Pio or Rosi, 24 hours): did not significantly reduce the ability of either Pio or Rosi to inhibit TGF-β1 induced HA synthesis

CCCCCC(=O)CCC1C(=O)CC(O)C1C/C=C\CCCC(=O)O (stereo not drawn) [DK-PGD2, 13,14-dihydro-15-keto-PGD2]
HA levels after selective DP agonist [2]: did not significantly increase HA levels

O=C(O)CCCCCCC1C(=O)NC(=O)N1CCC(O)C1CCCCC1 (stereo not drawn) [BW245C]
HA levels after selective DP agonist [2]: dose-dependently increased HA levels | intracellular cAMP production (orbital fibroblasts): significantly increased intracellular cAMP production within 15 to 30 minutes | HAS3 mRNA increase ([4]; 6 hours): 4.8±0.06 | HAS1 mRNA fold increase ([4]; two hours, compared to vehicle): 329±128 fold | HAS2 mRNA fold increase ([4]; two hours, compared to vehicle): 17±0.14 fold

CN(CCOc1ccc(CC2SC(=O)NC2=O)cc1)c1ccccn1 (stereo not drawn) [Rosi, rosiglitazone]
cell number after treatment [3]: No significant changes in cell number | cell viability (XTT) [5]: no significant difference in cell viability among treatment conditions

CCc1ccc(CCOc2ccc(CC3SC(=O)NC3=O)cc2)nc1 (stereo not drawn) [Pio, pioglitazone]
inhibition at 10 µM ([3]; read-out: inhibition of TGF-β1 mediated pericellular accumulation of HA): 40 ± 2.2% | inhibition at 10 µM ([3]; read-out: inhibition of TGF-β1 mediated secretion of HA): 52 ± 2.2% | cell number after treatment [3]: No significant changes in cell number | inhibition of TGF-β1 mediated HAS1 mRNA induction [6]: about 50% | inhibition of TGF-β1 mediated HAS2 mRNA induction [6]: about 50% | cell viability (XTT) [5]: no significant difference in cell viability among treatment conditions

CCCCC/C=C/C=C1/C(=O)C=C[C@@H]1C/C=C\CCCC(=O)O [15d-PGJ2, 15-deoxy-Δ12,14-Prostaglandin J2]
TGF-β induced HAS2 mRNA expression ([7]; 2 ng/ml TGF-β1): inhibited TGF-β induced HAS2 mRNA expression | TGF-β induced HAST mRNA expression ([7]; 2 ng/ml TGF-β1): enhanced TGF-β induced HAST mRNA expression | TGF-β induced HA secretion ([7]; 2 ng/ml TGF-β1, 24 hours): inhibited

CS(=O)(=O)c1cc(F)cc2c3c(n(Cc4ccc(Cl)cc4)c12)[C@@H](CC(=O)O)CC3 [MK-0524]
basal HA levels [2]: neither MK-0524 (MK) nor Ramatroban (RAM) influenced basal HA levels | PGD2- and PGJ2-induced HA production ([2]; 18 hours): completely blocked the ability of both PGD2 and PGJ2 to induce HA production

O=C(O)CCn1c2c(c3ccccc31)C[C@H](NS(=O)(=O)c1ccc(F)cc1)CC2 [Ramatroban]
basal HA levels [2]: neither MK-0524 (MK) nor Ramatroban (RAM) influenced basal HA levels | PGD2- and PGJ2-induced HA production ([2]; 18 hours): unable to prevent the induction of HA by PGD2 or PGJ2
